Consider seven compounds from patent publication US20100048692A1, “Naphthofuranone Derivatives as Specific Inhibitors of Thymidylate Synthases” (priority 2006, published 2010).

The target of one assay is T1, hDHFR (human DHFR) (Homo sapiens, UniProt P00374).
T1 construct: made in house; host or cells: Escherichia coli chi2913
T1 sequence (P00374 1-187): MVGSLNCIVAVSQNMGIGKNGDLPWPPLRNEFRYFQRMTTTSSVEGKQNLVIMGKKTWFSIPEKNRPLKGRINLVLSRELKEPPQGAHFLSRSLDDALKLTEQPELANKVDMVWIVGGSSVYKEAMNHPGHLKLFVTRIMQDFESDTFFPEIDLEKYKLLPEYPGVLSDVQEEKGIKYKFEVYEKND
Kind of assay: Enzymatic inhibition assay (Ki), human DHFR. It is filed as biochemical. As for the experimental part: The purified enzyme has been stored at −80° C. […] The enzymatic assays for the measurements of the Km consist in measuring the initial rate of the enzymatic reaction in presence of variable and increasing substrate (FAH2).
(§1) Enzymatic inhibition assay: The compounds hereby analyzed were previously dissolved in DMSO. The inhibitor concentrated solution was obtained by dissolving 2 mg of compound in 1 mL of DMSO. Next, solutions thus obtained were successively preserved and the […], and the stability of their working conditions was constantly controlled. The spectrophotometrical determinations of enzymatic reaction kinetics were carried out using a Parkin-Elmer λ16 spectrophotometer, provided with a multicell system which was maintained at the constant temperature of 20 C. degrees, with a HAAAKE F3C thermostatted bath.
The measurement of Ki (inhibition constant) was obtained through enzymatic inhibition essays carried out under stationary conditions. […] The enzyme is added finally. The assay aiming at controlling TS enzymatic activity is repeated at regular intervals. […] In this case inhibition constants were obtained through a non-linear regression analysis, which utilized of the least squared method, of the enzymatic reaction initial speeds relating to the inhibitor concentration; equation was the following: […]

The target in another assay is CnTS (Cryptococcus neoformans, UniProt P0CS12). It is filed as biochemical. The protocol: as §1
Sequence of CnTS (P0CS12 whole entry): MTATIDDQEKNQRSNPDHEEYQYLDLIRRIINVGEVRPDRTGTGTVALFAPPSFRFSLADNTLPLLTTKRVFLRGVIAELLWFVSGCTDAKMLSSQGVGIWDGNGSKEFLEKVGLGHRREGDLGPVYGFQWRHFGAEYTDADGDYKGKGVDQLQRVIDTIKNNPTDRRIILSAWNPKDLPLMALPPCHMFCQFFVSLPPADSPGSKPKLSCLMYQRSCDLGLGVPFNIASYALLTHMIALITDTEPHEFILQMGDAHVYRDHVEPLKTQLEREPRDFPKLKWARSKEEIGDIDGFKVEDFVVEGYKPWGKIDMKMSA
The elaboration of the data was carried out using Kaleidagraph 3.0; this software was provided by Macintosh (Adelbeck, Software Reading, Pa., 1989, version 2.3). The measurement of Ki (inhibition constant) was obtained through enzymatic inhibition essays carried out under stationary conditions. […] The enzyme is added finally. The assay aiming at controlling TS enzymatic activity is repeated at regular intervals. […] In this case inhibition constants were obtained through a non-linear regression analysis, which utilized of the least squared method, of the enzymatic reaction initial speeds relating to the inhibitor concentration; equation was the following:
Vi=Vmax*(1−([I])/([I]+(Ki*(1+([s]/Km))))), where
Vi=enzymatic reaction initial velocity, Vmax=enzymatic reaction maximum velocity, I=inhibitor concentration, Ki=inhibition constant, S=substrate concentration, Km=Michaelis-Menten.
Using this equation it is possible to obtain Ki making use of a minimal amount of experimental data. The specificity index relating to each of the compounds (Bio. Med. Chem. ) refers to the relation between KihTS/Kiother enzyme.

Another assay deals with Listeria monocytogenes 4. Kind of assay: Sensitivity assay (MIC). It is filed as cell-based. As for the experimental part:
(§2) The anti-bacterial properties of the compounds hereby described were evaluated towards: a) bacterial native strains comprehending gram-positive and gram-negative bacteria. The bacterial cultures were obtained by sowing bacteria in Mueller-Hinton (Difco) stirring at 37 C for 24 hours, and were then diluted, after reaching an appreciable level of exponential growth, using a growth plot in order to get a […] CFU/mL inoculum. Following, the obtained cultures were put in contact with growing concentrations of the present compound. Furthermore, it was measured the minimal concentration inhibiting the growth (MIC) of each of these compounds. In Table 2 several MIC obtained by different bacterial pathogenic strains have been reported that were treated using compounds of the present invention and were also compared with those obtained through ciprofluoxacin (cpx).

For a further assay, the system named is Listeria monocytogenes 7. Kind of assay: Sensitivity assay (MIC). It is filed as cell-based. As for the experimental part:
as §2

The subject of a further assay is Escherichia coli 256. Nature of the assay: Sensitivity assay (MIC). It is filed as cell-based. The protocol: as §2
Assay [1] concerns Listeria monocytogenes ATCC 4428. Kind of assay: Sensitivity assay (MIC). It is filed as cell-based. As for the experimental part:
as §2

For another assay, the system named is Streptococcus 42. Nature of the assay: Sensitivity assay (MIC). The class given is cell-based. The protocol:
as §2

In assay [2] the test system is Staphylococcus haemolyticus ATCC 2997. Kind of assay: Sensitivity assay (MIC). It is filed as cell-based. As for the experimental part: as §2
A further assay deals with Citrobacter 224. Nature of the assay: Sensitivity assay (MIC). It is filed as cell-based. The protocol:
as §2

The test system of assay [3] is Staphylococcus aureus K28. Kind of assay: Sensitivity assay (MIC). It is filed as cell-based. The protocol:
as §2

Another assay deals with Listeria monocytogenes 3. Kind of assay: Sensitivity assay (MIC). It is filed as cell-based. As for the experimental part:
as §2

The subject of assay [4] is Enterococcus faecalis ATCCC 29212. Nature of the assay: Sensitivity assay (MIC). The class given is cell-based. As for the experimental part: as §2
For another assay, the system named is Listeria monocytogenes 6. Nature of the assay: Sensitivity assay (MIC). It is filed as cell-based. The protocol:
as §2

Assay [5] relates to Staphylococcus aureus 343. Nature of the assay: Sensitivity assay (MIC). The class given is cell-based. As for the experimental part:
as §2

In a further assay the test system is Listeria monocytogenes 5. Nature of the assay: Sensitivity assay (MIC). It is filed as cell-based. As for the experimental part:
as §2

For assay [6], the system named is Staphylococcus saprophiticus ATCC15305. Nature of the assay: Sensitivity assay (MIC). The class given is cell-based. The protocol: as §2
The next assay relates to Escherichia coli 292. Nature of the assay: Sensitivity assay (MIC). The class given is cell-based. The protocol:
as §2

Another assay has as its system Listeria monocytogenes 8. Kind of assay: Sensitivity assay (MIC). It is filed as cell-based. The protocol: as §2
Assay [7] concerns Staphylococcus aureus ATCC29213. Kind of assay: Sensitivity assay (MIC). It is filed as cell-based. The protocol: as §2
The test system of assay [8] is Staphylococcus aureus 341. Kind of assay: Sensitivity assay (MIC). The class given is cell-based. As for the experimental part: as §2

≈ marks a conversion by molar mass, not a printed value.

Turning to `O=C1OC(c2ccc(O)cc2)(c2ccc(O)cc2)c2ccc3ccccc3c21` [Compound 6, 3,3-Bis-(4-hydroxyphenyl)-1H-naphtho[1,2-c]furan-3-one], the affinity at hDHFR (human DHFR) corresponds to a Ki of 13 µM.
With `O=C1OC(c2ccc(O)c(Cl)c2)(c2ccc(O)c(Cl)c2)c2ccc3ccccc3c21` [Compound 7, 3,3-Bis-(3-chlorine-4-hydroxyphenyl)1H-naphtho(1,2-c)furan-3-one], the “SSI hTS vs hDHFR” value at hDHFR (human DHFR) is listed as 1. At CnTS, this compound yielded a Ki of 8.1 µM.
`O=C1OC(c2ccc(O)c(I)c2)(c2ccc(O)c(I)c2)c2ccc3ccccc3c21` [Compound 3]: on hDHFR (human DHFR), the Ki was found to be 3.9 µM and the “SSI hTS vs hDHFR” value came out at 0.01. In addition, the Ki at CnTS was determined as 4.5 µM.
For `O=C1OC(c2ccc(O)c(Br)c2)(c2ccc(O)c(Br)c2)c2ccc3ccccc3c21` [Compound 4], on hDHFR (human DHFR), the affinity, expressed as Ki, was 33 µM and the “SSI hTS vs hDHFR” value is 0.2. At CnTS, this compound displayed a Ki of 2.7 µM.
`Cc1cc(O)c(C(C)C)cc1C1(c2cc(C(C)C)c(O)cc2C)OC(=O)c2c1ccc1ccccc21` [Compound 2, 33,3-Bis-(4-hydroxyl-5-isopropyl-2-methylphenyl)-3H-naphtho(1,2-c)furan-1-one]: at hDHFR (human DHFR), the Ki was determined as 35 µM and the “SSI hTS vs hDHFR” value is given as 88. The compound further had a Ki on CnTS of 0.6 µM.
With `O=C1OC(c2ccc(O)c(F)c2)(c2ccc(O)c(F)c2)c2ccc3ccccc3c21` [Compound 8, 3,3-Bis-(3-fluorine-4-hydroxyphenyl)1H-naphtho(1,2-c)furan-3-one], the “Minimum inhibitory concentration (MIC)” value in the assay on Listeria monocytogenes 4 is 25 µg/mL (≈ 61.8 µM); in the assay on Listeria monocytogenes 7, 25 µg/mL (≈ 61.8 µM); in the assay with Escherichia coli 256 it was above 50 µg/mL; in assay [1] it was 25 µg/mL (≈ 61.8 µM); in the assay with Streptococcus 42 it was 25 µg/mL (≈ 61.8 µM); in [2], 25 µg/mL (≈ 61.8 µM). Besides, the “Minimum inhibitory concentration (MIC)” value was above 50 µg/mL with Citrobacter 224; 25 µg/mL (≈ 61.8 µM) in assay [3]; 25 µg/mL (≈ 61.8 µM) in the assay on Listeria monocytogenes 3; 25 µg/mL (≈ 61.8 µM) in assay [4]; 25 µg/mL (≈ 61.8 µM) with Listeria monocytogenes 6; 25 µg/mL (≈ 61.8 µM) in assay [5]. The “Minimum inhibitory concentration (MIC)” value with Listeria monocytogenes 5 is 25 µg/mL (≈ 61.8 µM); in [6], 25 µg/mL (≈ 61.8 µM); in the assay on Escherichia coli 292, above 50 µg/mL; in the assay on Listeria monocytogenes 8 it was 25 µg/mL (≈ 61.8 µM); in [7], 25 µg/mL (≈ 61.8 µM); in assay [8], 25 µg/mL (≈ 61.8 µM). For the same compound, the Ki at hDHFR (human DHFR) was found to be 109 µM; at CnTS it was 3.5 µM. The “SSI hTS vs hDHFR” value on hDHFR (human DHFR) worked out at 1.
`O=C(O)c1cn(C2CC2)c2cc(N3CCNCC3)c(F)cc2c1=O` [cpx, ciprofluoxacin, reference compound]: the “Minimum inhibitory concentration (MIC)” value is 1 µg/mL (≈ 3.02 µM) with Listeria monocytogenes 4; 1 µg/mL (≈ 3.02 µM) with Listeria monocytogenes 7; above 25 µg/mL in the assay on Escherichia coli 256; 2.5 µg/mL (≈ 7.54 µM) in assay [1]; above 5 µg/mL in the assay on Streptococcus 42; 2.5 µg/mL (≈ 7.54 µM) in [2]. Besides, the “Minimum inhibitory concentration (MIC)” value in the assay with Citrobacter 224 was above 25 µg/mL; in [3] it was 0.5 µg/mL (≈ 1.51 µM); with Listeria monocytogenes 3 it was 2.5 µg/mL (≈ 7.54 µM); in assay [4] it was 12.5 µg/mL (≈ 37.7 µM); in the assay on Listeria monocytogenes 6 it was 2.5 µg/mL (≈ 7.54 µM); in [5], 0.5 µg/mL (≈ 1.51 µM). Also, the “Minimum inhibitory concentration (MIC)” value in the assay with Listeria monocytogenes 5 is 2.5 µg/mL (≈ 7.54 µM); in [6], 1 µg/mL (≈ 3.02 µM); with Escherichia coli 292, above 25 µg/mL; in the assay with Listeria monocytogenes 8, 1 µg/mL (≈ 3.02 µM); in assay [7], 0.5 µg/mL (≈ 1.51 µM); in assay [8] it was 1.2 µg/mL (≈ 3.62 µM).
